Assay results as given in patent US20080242681A1, “N-4-(6-(Hetero)Aryl-Pyrimidin-4-Ylaminophenyl)-Benzenesulfonamides as Kinase Inhibitors” (Altana Pharma AG, priority 2004, published 2008).
Where a name gives a salt, the structure may show the parent alone.

What was measured:
[1] = system: primary human CD4+ T lymphocytes; test: CD3/CD28 costimulation assay, IL-2 release; assay type: cell-based; conditions: 48 h, IL-2 ELISA, read-out: IC50, inhibition of IL-2 release from stimulated CD4+ T lymphocytes
Procedure: The assay is performed with freshly isolated primary human CD4+ T lymphocytes. CD4+ T lymphocytes from whole blood are prepared using negative selection as previously described (Hatzelmann and Schudt, J. Pharmacol. Exp. Ther. 2001; 297:267-279). In brief, peripheral blood mononuclear cells (PBMC) are isolated by density gradient centrifugation using a Percoll gradient (p= 1.077 g/ml). 1×10^7 PBMC were then resuspended in 30 μl of PBS containing 0.5% FCS and human CD4+ T lymphocytes are isolated by depletion of non CD4+ T cells. For this, non-CD4+ T cells are Indirectly magnetically labeled with 10 μl of a cocktail of biotin-conjugated monoclonal antibodies (against CD8, CD14, CD16, CD19, CD36, CD56, CD123, TCR γ/δ; MACS CD4+ T cell isolation kit II, Miltenyi Biotec), as primary labeling reagent, and anti-biotin monoclonal antibodies conjugated to MicroBeads, as secondary labeling reagent The magnetically labeled non-CD4+ T cells are depleted by retaining them on a MACS column in the magnetic field of a MACS separator (Miltenyi Biotec, Bergisch Gladbach, Germany) according to the manufacturer's instruction. CD4+ T cells are resuspended in RPM 11640 containing 10% heat-inactivated FCS, 2 mM L-glutamine, 100 U/ml penicillin and 100 μg/ml streptomycin (Gibco Life Technologies).
2×10^5 CD4+ T cells in a total assay volume of 200 μl are stimulated via the T-cell receptor and the costimulatory molecule CO28 by using corresponding selective mAbs as previously described (Hatzelmann and Schudt, J. Pharmacol. Exp. Ther. 2001; 297:267-279). The assay is performed in 96 well tissue culture plates (655180, flat bottom, Greiner, Frickenhausen, Germany). Cells were maintained at 37° C. in a humidified atmosphere of 5% CO2 in an incubator (type BB6220 CU, Heraeus Instruments, Hanau, Germany). For determination of IL-2 level, all assays are performed in duplicate, and after 48 h of growth, supernatants are removed, pooled in 96 well plates (650101, U-shape, Greiner) and stored at −20° C. before measurement of IL-2 with a commercially available enzymimmunoassay kit from Coulter-Immunotech Diagnostics (Marseille, France) according to the manufacturer's instruction. For each experiment the appropriate dilution factor for IL-2 is determined. Dilutions are performed in diluent D (Coulter-Immunotech Diagnostics) and IL-2 for one condition is determined from the pool fraction in duplicate in a ELISA-reader (Rainbow, Tecan, Crailsheim, Germany) at 450 nm.
To investigate the effect of a test compound on the IL-2 release of stimulated CD4+ T cells, six three-fold dilution steps in duplicates per test compound are performed (final DMSO concentration 0.1%). […] The inhibition obtained In the presence of a test compound is calculated as percent inhibition of the high control. […]

PKCδ = target: T1, PKCδ (Homo sapiens, UniProt Q05655); test: Protein Kinase C δ assay (SPA); assay type: biochemical; conditions: human recombinant PKCδ, PKCη pseudosubstrate, read-out: IC50, inhibition of PKC δ
T1 construct: purchased Panvera
T1 sequence (Q05655 whole entry): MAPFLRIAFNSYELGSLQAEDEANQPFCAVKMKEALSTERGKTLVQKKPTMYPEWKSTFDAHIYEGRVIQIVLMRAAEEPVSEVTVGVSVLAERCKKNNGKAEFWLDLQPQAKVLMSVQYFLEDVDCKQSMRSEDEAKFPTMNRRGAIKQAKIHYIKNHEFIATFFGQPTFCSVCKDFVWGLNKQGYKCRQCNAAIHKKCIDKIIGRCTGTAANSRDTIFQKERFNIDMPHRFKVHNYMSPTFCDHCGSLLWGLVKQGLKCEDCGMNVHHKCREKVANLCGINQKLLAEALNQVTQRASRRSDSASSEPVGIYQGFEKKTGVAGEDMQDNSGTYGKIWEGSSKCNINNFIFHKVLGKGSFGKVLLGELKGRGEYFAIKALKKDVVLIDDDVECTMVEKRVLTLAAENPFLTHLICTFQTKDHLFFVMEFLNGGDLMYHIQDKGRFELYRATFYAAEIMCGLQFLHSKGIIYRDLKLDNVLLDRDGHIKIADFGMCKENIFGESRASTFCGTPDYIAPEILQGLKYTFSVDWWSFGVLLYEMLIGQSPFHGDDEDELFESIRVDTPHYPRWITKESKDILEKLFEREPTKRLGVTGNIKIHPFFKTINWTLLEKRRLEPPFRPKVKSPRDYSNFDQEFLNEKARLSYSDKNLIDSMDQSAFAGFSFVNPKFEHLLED
Procedure: (§1) The compounds of formula 1 are tested for their activity on different protein kinases and PKC isoforms using a scintillation proximity assay (SPA, Amersham International plc). ^33P-labeled peptides are captured onto streptavidin coated yttrium silicate SPA beads. β-particles, emitted from the captured ^33P-labeled substrate in close proximity to the bead are able to excite the scintillant, resulting in the generation of quantifiable light. The assay is performed in a 96-well polystyrene microtiterplate (1450-514, Isoplates, Wallac, Turku, Finland). The reaction mixture (50 μl) contains 10 μl of the test compound together with 10 μl of the relevant kinase, diluted in the relevant dilution buffer, 5 μl of 10 μM phorbol myristate acetate (PMA) in H2O, 5 μl of 1.6 mM phosphatidylserine (Sigma-Aldrich Chemie GmbH, Stein-heim, Germany) in 20 mM Tris/HCL buffer pH 7.4, 5 μl of 0.3% BSA in H2O, 5 μl of 30 μM relevant substrate and 10 μl of 5 μM ATP and 0.1 μCi of ^33P-ATP (Amersham, Freiburg, Germany) in 200 mM Tris/HCL pH 7.5 and 200 mM MgCl2. Incubation is performed for 40 min at room temperature (RT) without shaking. Reaction is stopped by adding 150 μl of cold stop solution containing 10 mM ATP, 5 mM EGTA pH 7.5, 0.1% Triton X-100 and 0.2 mg streptavidin coated yttrium silicate SPA beads (Amersham, RPNQ 0012). The sealed plate is incubated for 60 min at RT. Thereafter the MTP is counted in a Microbeta Jet (Wallac). IC50 measurement is performed on a routine basis by incubation a serial dilution of inhibitor at concentrations ranging between 0.01 and 100 μM according to the method described above. Background values are the signals of the reaction mixture without addition of the relevant kinase and are subtracted from all values. 100% values are the signals of the reaction mixture without addition of inhibitors.
Dependent on the efficacy of the inhibitors In the various test systems, corresponding IC50 values are calculated from concentration-inhibition curves by nonlinear regression analysis using the program GraphPad Prism (GraphPad Software Inc., San Diego, Calif.). […]

PKCη = target: T2, PKCη (Homo sapiens, UniProt P24723); test: Protein Kinase C η assay (SPA); assay type: biochemical; conditions: human recombinant PKCη from Sf21 insect cells, read-out: IC50, inhibition of PKC η
T2 construct: made in house; host or cells: Sf21 insect cells
T2 sequence (P24723 whole entry): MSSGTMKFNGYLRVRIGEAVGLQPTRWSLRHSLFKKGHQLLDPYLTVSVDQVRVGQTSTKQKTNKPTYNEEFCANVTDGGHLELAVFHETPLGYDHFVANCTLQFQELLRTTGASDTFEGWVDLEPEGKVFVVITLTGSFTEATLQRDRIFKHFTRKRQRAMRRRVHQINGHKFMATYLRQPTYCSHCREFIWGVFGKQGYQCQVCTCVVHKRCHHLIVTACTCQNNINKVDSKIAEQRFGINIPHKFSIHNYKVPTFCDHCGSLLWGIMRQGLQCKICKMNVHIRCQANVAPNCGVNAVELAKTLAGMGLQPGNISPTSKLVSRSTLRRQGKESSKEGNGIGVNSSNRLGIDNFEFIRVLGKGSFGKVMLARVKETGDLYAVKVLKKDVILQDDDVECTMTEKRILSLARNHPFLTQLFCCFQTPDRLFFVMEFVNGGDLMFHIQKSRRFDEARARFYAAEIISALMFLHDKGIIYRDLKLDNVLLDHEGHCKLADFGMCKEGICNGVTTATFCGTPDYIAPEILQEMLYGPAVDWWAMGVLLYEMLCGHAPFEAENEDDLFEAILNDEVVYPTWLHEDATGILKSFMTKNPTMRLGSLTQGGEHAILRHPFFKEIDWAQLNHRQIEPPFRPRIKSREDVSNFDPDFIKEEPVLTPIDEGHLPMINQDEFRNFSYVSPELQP
Procedure: as §1
(§2) Dependent on the efficacy of the inhibitors In the various test systems, corresponding IC50 values are calculated from concentration-inhibition curves by nonlinear regression analysis using the program GraphPad Prism (GraphPad Software Inc., San Diego, Calif.).
(§3) Human recombinant nickel bead purified PKCη from Sf21 insect cells is used under the assay conditions as described above (Section A.1). The enzyme is diluted in PKC dilution buffer containing 1 mM Hepes pH 7.4, 0.5 mM DTT and 0.001% Triton X-100. The kinase reaction is performed with the biotinylated PKCη pseudosubstrate solved in H2O. The examples 52, 55, 118 and 135 inhibit PKC η in this assay with an IC50 between 6 and 50 μM.

PKCθ = target: T3, PKCθ (Homo sapiens, UniProt Q04759); test: Protein Kinase C θ assay (SPA); assay type: biochemical; conditions: human recombinant PKCθ from Sf21 insect cells, read-out: IC50, inhibition of PKC θ
T3 construct: made in house; host or cells: Sf21 insect cells
T3 sequence (Q04759 whole entry): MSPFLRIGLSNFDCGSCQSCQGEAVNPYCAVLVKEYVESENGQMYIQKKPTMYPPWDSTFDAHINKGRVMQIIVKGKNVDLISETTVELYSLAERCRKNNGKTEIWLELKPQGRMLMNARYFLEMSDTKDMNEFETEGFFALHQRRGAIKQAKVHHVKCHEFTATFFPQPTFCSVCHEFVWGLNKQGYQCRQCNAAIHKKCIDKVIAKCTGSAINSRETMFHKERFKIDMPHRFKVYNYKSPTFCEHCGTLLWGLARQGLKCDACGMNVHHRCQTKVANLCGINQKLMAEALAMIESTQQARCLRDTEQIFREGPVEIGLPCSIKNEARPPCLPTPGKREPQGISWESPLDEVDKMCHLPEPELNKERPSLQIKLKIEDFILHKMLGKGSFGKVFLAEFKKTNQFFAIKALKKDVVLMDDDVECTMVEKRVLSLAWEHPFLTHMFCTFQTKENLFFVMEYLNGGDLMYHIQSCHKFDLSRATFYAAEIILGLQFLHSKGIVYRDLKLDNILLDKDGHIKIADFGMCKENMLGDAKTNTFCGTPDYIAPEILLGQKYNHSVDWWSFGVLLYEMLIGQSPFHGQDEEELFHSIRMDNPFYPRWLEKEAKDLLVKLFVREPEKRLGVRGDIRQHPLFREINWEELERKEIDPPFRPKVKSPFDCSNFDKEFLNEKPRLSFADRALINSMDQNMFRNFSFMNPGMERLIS
Procedure: as §1, §2
as §3, with “PKCθ” for “PKCη”, “8, 22, 46, 115,” for “52, 55,”, “161” for “135”, “9” for “η”, “IC50<1” for “IC50 between 6 and 50”

responder T cells = test: Mixed lymphocyte reaction (MLR), T cell proliferation; assay type: cell-based; conditions: [3H]thymidine incorporation after 48 h, read-out: IC50, inhibition of MLR-mediated T-cell proliferation
Procedure: For MLR cultures 4×10^5 responder T cells are incubated in duplicates with 2×10^5 mitomycin C-treated allogeneic stimulator T cells in a total volume of 200 μl RPMI 1640 medium supplemented with 10% FCS, 2 mM L-glutamine, 100 U/ml penicillin and 100 μg/ml streptomycin (Gibco Life Technologies) in 96 well tissue culture plates (655180, flat bottom, Greiner). Cells are maintained at 37° C. in a humidified atmosphere of 5% CO2. After 48 h of growth, cells are pulsed with 1 μCi [^3H]thymidine and incorporation of [^3H]thymidine is measured with a Topcount radioactive counter (Packard). To investigate the effect of a test compound on MLR-mediated T cell proliferation six three-fold dilution steps in duplicates per test compound are performed (final DMSO concentration 0.1%). Low control values are the proliferation of responder cells alone; high controls are from mixed lymphocyte cells without any test samples. Low controls are subtracted from all values. The inhibition obtained in the presence of a test compound is calculated as percent Inhibition of the high control. The concentration of test compounds resulting in 50% inhibition (IC50) is determined from the dose-response curves. The examples 91, 128, 133 and 137 inhibit MLR-mediated T-cell proliferation in this assay with an IC50<1 μM.

## O=S(=O)(Nc1ccc(Nc2cc(-c3cccc4ccccc34)ncn2)cc1)c1ccccc1F [Example 13, 2-Fluoro-N-[4-(6-naphthalen-1-yl-pyrimidin-4-ylamino)-phenyl]-benzenesulfonamide]
[1]
  IC50: 1000 to 9000 nM

## CN(C)CCn1ccc2cc(-c3cc(Nc4ccc(NS(=O)(=O)c5ccc(F)c(Cl)c5)cc4)ncn3)ccc21 [Example 138, 3-Chloro-N-{4-[6-[1-(2-dimethylamino-ethyl)-1H-indol-5-yl]pyrimidin-4-ylamino]-phenyl}-4-fluoro-benzenesulfonamide]
PKCδ
  IC50: 2000 to 18000 nM

## O=S(=O)(Nc1ccc(Nc2cc(-c3ccc4[nH]ccc4c3)ncn2)cc1)c1ccc(F)cc1F [Example 118, 2,4-Difluoro-N-{4-[6-(1H-indol-5-yl)-pyrimidin-4-ylamino]-phenyl}-benzenesulfonamide]
PKCη
  IC50: 6000 to 50000 nM
PKCθ
  IC50: < 1000 nM

## COc1cccc(-c2cc(Nc3ccc(NS(=O)(=O)c4ccc(C#N)cc4)cc3)ncn2)c1 [Example 19, 4-Cyano-N-{4-[6-(3-methoxy-phenyl)-pyrimidin-4-ylamino]phenyl}benzenesulfonamide]
[1]
  IC50: 1000 to 9000 nM

## Cc1ccc(S(=O)(=O)Nc2ccc(Nc3cc(-c4ccc5c(ccn5CCN(C)C)c4)ncn3)cc2)cc1 [Example 136, N-(4-{6-[1-(2-Dimethylamino-ethyl)-1H-indol-5-yl]pyrimidin-4-ylamino}-phenyl)-4-methyl-benzenesulfonamide]
[1]
  IC50: 1000 to 9000 nM

## CN(C)CCCn1ccc2cc(-c3cc(Nc4ccc(NS(=O)(=O)c5ccc(F)cc5F)cc4)ncn3)ccc21 [Example 133, N-(4-{6-[1-(3-Dimethylamino-propyl)-1H-indol-5-yl]-pyrimidin-4-ylamino}-phenyl)-2,4-difluorobenzenesulfonamide]
Responder T cells
  IC50: < 1000 nM

## CCN(CC)CCCn1ccc2cc(-c3cc(Nc4ccc(NS(=O)(=O)c5ccc(F)cc5F)cc4)ncn3)ccc21 [Example 168, N-(4-{6-[1-(3-Diethylamino-propyl)-1H-indol-5-yl]-pyrimidin-4-ylamino}-phenyl)-2,4-difluoro-benzenesulfonamide formic acid salt]
PKCδ
  IC50: 2000 to 18000 nM

## CN(C)CCCn1ccc2cc(-c3cc(Nc4ccc(NS(=O)(=O)c5ccc(F)c(Cl)c5)cc4)ncn3)ccc21 [Example 137, 3-Chloro-N-(4-{6-[1-(3-dimethylamino-propyl)-1H-indol-5-yl]-pyrimidin-4-ylamino}-phenyl)-4-fluoro-benzenesulfonamide]
Responder T cells
  IC50: < 1000 nM

## CN1CCC(COc2ccc(-c3cc(Nc4ccc(NS(=O)(=O)c5ccc(F)cc5F)cc4)ncn3)cc2)CC1 [Example 91, 2,4-Difluoro-N-(4-{6-[4-(1-methyl-piperidin-4-ylmethoxy)-phenyl]-pyrimidin-4-ylamino}-phenyl)-benzenesulfonamide formic acid salt]
Responder T cells
  IC50: < 1000 nM

## COc1cccc(-c2cc(Nc3ccc(NS(=O)(=O)c4ccccc4F)cc3)ncn2)c1 [Example 20, 2-Fluoro-N-{4-[6-(3-methoxy-phenyl)-pyrimidin-4-ylamino]-phenyl}-benzenesulfonamide]
[1]
  IC50: 1000 to 9000 nM

## COc1ccc(S(=O)(=O)Nc2ccc(Nc3cc(-c4ccc5c(ccn5CCN(C)C)c4)ncn3)cc2)cc1 [Example 132, N-(4-{6-[1-(2-Dimethylamino-ethyl)-1H-indol-5-yl]-pyrimidin-4-ylamino}-phenyl)-4-methoxy-benzenesulfonamide]
PKCδ
  IC50: 2000 to 18000 nM
